molecular target: T1, EHMT1 (Homo sapiens, UniProt Q9H9B1); test: EHMT1 enzyme assay on peptide substrate (EHMT1 PEP); format: biochemical; conditions: Table VI; read-out: EHMT1 PEP IC50
T1 sequence (Q9H9B1 1-1298): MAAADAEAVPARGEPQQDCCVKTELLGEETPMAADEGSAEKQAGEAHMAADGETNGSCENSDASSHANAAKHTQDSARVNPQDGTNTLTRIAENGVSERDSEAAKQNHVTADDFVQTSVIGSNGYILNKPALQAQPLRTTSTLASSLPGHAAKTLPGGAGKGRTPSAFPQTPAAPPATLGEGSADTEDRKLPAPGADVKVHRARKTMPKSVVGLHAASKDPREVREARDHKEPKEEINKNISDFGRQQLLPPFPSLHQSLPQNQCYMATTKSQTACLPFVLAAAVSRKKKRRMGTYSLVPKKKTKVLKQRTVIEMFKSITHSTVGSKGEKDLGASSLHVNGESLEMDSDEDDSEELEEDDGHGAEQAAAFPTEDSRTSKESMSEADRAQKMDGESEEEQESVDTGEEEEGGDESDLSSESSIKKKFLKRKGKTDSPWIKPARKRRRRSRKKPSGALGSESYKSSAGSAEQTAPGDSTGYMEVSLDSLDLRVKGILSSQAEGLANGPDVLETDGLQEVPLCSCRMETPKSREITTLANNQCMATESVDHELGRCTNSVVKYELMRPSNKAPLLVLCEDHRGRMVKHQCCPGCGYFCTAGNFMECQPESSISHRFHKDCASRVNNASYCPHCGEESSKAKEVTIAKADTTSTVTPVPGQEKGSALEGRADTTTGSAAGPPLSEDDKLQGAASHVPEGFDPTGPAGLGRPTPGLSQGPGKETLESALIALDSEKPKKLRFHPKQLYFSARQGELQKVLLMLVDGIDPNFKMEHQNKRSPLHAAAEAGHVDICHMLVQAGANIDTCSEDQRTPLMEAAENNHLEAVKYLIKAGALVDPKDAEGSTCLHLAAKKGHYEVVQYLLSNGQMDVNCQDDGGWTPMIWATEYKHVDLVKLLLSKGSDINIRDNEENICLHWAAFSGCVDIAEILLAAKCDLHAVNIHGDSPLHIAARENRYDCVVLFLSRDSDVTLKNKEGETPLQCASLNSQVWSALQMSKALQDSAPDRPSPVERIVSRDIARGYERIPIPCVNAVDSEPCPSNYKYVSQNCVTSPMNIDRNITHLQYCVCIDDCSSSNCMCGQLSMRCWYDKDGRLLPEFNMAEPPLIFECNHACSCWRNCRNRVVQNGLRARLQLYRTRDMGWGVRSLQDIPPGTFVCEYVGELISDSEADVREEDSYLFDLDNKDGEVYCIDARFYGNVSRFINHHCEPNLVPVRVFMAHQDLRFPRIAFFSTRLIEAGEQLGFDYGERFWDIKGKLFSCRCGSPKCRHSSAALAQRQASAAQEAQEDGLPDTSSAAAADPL

Question: For `CNc1cc(C)nc(Nc2ccc(OC)c(CNCCN(C)C)c2)n1` [Compound 990], which IC50 is on record?
Answer: Its IC50 is < 100 nM.

Question: With `CNc1ccnc(Nc2ccc(OC)c(OCC(C)(O)CN3CCC3)c2)n1` (stereo not drawn) [Compound 1005] as the molecule, how does the IC50 read?
Answer: The IC50 was 1000 to 10000 nM.

Question: With `CCN1CCC(O)(COc2cc(Nc3nccc(NC)n3)ccc2OC)C1` (stereo not drawn) [Compound 1006] as the molecule, how does the IC50 read?
Answer: The IC50 was < 100 nM.

Question: For `CCN1CCC(O)(COc2cc(Nc3nccc(NC)n3)ccc2OC)C1` (stereo not drawn) [Compound 1007], which IC50 is on record?
Answer: Its IC50 is 1000 to 10000 nM.

Question: Which IC50 does the source give for `CNc1ccnc(Nc2ccc(OC)c(OCC(C)CN3CCC3)c2)n1` (stereo not drawn) [Compound 1008] here?
Answer: The IC50 was < 100 nM.

Question: `CNCC(C)COc1cc(Nc2nccc(NC)n2)ccc1OC` (stereo not drawn) [Compound 1009] was tested. Which IC50 did it give?
Answer: The IC50 was 1000 to 10000 nM.

Question: Which IC50 does the source give for `CNCCC(C)Oc1cc(Nc2nccc(NC)n2)ccc1OC` (stereo not drawn) [Compound 1011] here?
Answer: Its IC50 is 1000 to 10000 nM.

Question: How did the IC50 turn out when `CNc1ccnc(Nc2ccc(OC)c(OCCC(C)N3CCC3)c2)n1` (stereo not drawn) [Compound 1014] was run?
Answer: The IC50 was 100 to 1000 nM.

Question: How did the IC50 turn out when `CNc1ccnc(Nc2ccc(OC)c(OCCC(C)NC)c2)n1` (stereo not drawn) [Compound 1016] was run?
Answer: Its IC50 is 100 to 1000 nM.
